Data published in patent US11980674B2, “Imaging of metastatic or recurrent cancer” (Blue Earth Diagnostics Limited, priority 2020, dated 2024).

What was measured:
[1] = human, in vivo
Description: FIGS. 1a and 1b show accumulation of FACBC in the Virchow's node when the FACBC is injected into the left arm.
In some embodiments, the right arm may be preferred as stasis in the axillary vein upon injection in the left arm may be misinterpreted as a metastatic lymph node called Virchow's node, which is located in the left supraclavicular fossa (the area above the left clavicle, or collar bone). For example, FIGS. 1a and 1b show accumulation of FACBC in the Virchow's node when the FACBC is injected into the left arm.

[2] = tested on: known prostate carcinoma recurrence; assay: PET time activity curves (FIG. 3); assay type: in vivo, human; settings: for time at which plateau was reached: remained constant throughout the imaging period
Description: Regions in marrow (ilium), muscle (gluteus), and bladder reached a plateau at 4.5 minutes that remained constant throughout the imaging period.

N[C@]1(C(=O)O)C[C@@H](F)C1 [fluciclovine, anti-1-amino-3-^18F-fluorocyclobutane-1-carboxylic acid]
standardized uptake value (SUV) [1]: > 200 | time at which plateau was reached ([2]; bladder): 4.5 min | time of maximum uptake ([2]; known prostate carcinoma recurrence): 4.5 min | plateau of uptake lasting to ([2]; known prostate carcinoma recurrence, after maximum at 4.5 minutes): 30 min | gradual clearance ([2]; known prostate carcinoma recurrence, after plateau, out to 60 minutes): 9 %/min | time at which plateau was reached ([2]; marrow (ilium)): 4.5 min | time at which plateau was reached ([2]; muscle (gluteus)): 4.5 min
